According to patent publication US20100298282A1, “Treatment of Ocular Conditions and the Side-Effects of Glucocorticoids” (priority 2006, published 2010):
Like-named read-outs stand apart in the source and are kept apart here. Marks after values point to notes of the source that are not given here.

Assays:
[1] = biological target: T1, human recombinant receptor (GR) (Homo sapiens, UniProt P04150); test: GR binding, glucocorticoid radioligand binding with [3H]-dexamethasone
T1 sequence (P04150 1-777): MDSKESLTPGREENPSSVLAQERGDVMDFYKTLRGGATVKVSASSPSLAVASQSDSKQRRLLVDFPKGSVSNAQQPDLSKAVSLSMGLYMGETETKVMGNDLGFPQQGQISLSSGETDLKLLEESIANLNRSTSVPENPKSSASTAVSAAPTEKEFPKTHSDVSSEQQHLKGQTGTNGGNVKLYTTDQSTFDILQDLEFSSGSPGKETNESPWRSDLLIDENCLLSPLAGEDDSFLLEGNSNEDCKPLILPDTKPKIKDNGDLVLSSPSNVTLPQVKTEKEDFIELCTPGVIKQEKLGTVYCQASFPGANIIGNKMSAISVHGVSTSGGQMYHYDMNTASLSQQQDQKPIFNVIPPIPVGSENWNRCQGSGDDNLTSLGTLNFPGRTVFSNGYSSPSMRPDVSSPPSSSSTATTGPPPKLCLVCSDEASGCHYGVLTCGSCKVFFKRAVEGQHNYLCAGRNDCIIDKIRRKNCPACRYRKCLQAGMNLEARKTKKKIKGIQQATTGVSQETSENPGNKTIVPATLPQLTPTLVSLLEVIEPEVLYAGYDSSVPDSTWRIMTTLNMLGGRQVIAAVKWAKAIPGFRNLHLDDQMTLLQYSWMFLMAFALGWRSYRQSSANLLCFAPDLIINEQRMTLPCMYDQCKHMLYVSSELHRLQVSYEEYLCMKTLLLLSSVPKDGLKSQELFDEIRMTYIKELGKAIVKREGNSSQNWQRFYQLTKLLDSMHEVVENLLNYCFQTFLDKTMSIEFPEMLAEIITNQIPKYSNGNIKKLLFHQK
Text: (§1) The methods are described by Gill et al. and Morgan et al., supra.

[2] = biological target: T2, native glucocorticoid receptors (Homo sapiens, UniProt P04150); test: Glucocorticoid reporter gene assay (GRE-luciferase) in SW1353 cells, GR antagonist activity; type: cell-based; details: for Ki: Ki=IC50/(1+[Dex]/EC50Dex); for IC50: 24 hours, in the presence of 50 nM dexamethasone
T2 construct: cell line that expresses native glucocorticoid receptors; endogenous in cells; host or cells: SW1353 human chondrosarcoma cells, stably transfected only with a GRE-luciferase reporter
T2 sequence (P04150 1-777): T1 sequence (P04150 1-777)
Text: Depending on the intended use and route of administration, various criteria may be used to determine a GR antagonist for use in the invention. […] The GR antagonism preferably negates more than 30%, more preferably more than 50%, and most preferably more than 90%, of the GR agonism at sites distant from the site of administration of the corticosteroid, and negates less than 70%, more preferably less than 50%, and most preferably less than 10%, of the GR agonism at the site of intended action of the corticosteroid.
The glucocorticoid reporter gene assay was performed in SW1353 human chondrosarcoma cell line that expresses native glucocorticoid receptors (Morgan et al., supra), stably transfected with a vector containing a glucocorticoid-responsive element (GRE) linked to the firefly luciferase gene. […] Compounds were tested on two separate occasions to determine inter-assay variability.
Ki values were calculated from the equation
Ki=IC50/(1+[Dex]/EC50^Dex)

[3] = biological target: T3, human recombinant receptor (PR) (Homo sapiens, UniProt P06401); test: PR binding, radioligand binding with [3H]-progesterone
T3 sequence (P06401 1-933): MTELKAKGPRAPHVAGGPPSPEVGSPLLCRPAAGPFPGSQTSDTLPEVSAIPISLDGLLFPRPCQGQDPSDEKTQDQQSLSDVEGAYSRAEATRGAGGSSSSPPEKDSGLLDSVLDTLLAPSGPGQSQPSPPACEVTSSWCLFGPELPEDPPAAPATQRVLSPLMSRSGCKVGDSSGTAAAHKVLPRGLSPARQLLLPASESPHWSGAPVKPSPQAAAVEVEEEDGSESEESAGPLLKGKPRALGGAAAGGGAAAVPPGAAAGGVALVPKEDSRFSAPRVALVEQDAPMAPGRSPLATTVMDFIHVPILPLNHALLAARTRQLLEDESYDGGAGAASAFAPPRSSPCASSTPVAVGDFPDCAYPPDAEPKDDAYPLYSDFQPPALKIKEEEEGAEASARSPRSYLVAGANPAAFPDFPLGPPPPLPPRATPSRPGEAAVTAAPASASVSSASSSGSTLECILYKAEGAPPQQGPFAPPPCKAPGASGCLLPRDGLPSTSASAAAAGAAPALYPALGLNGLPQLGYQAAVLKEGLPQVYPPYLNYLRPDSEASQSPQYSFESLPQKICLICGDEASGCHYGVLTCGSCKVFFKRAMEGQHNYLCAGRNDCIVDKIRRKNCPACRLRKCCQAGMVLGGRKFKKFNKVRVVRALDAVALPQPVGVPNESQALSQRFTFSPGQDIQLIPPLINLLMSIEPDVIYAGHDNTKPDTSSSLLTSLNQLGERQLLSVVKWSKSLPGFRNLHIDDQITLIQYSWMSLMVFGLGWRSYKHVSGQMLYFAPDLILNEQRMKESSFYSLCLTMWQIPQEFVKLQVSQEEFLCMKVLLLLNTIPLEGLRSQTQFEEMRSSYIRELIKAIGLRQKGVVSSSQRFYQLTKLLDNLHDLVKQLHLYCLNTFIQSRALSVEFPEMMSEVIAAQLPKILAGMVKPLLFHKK
Experimental: as §1
PR binding was assessed using the same methods, using the human recombinant receptor and [^3H]-progesterone. IC50 values were determined from six-point concentration/inhibition curves performed in duplicate at semi-log concentrations.

[4] = tested on: Intraocular pressure (IOP); test: Intraocular pressure after a single eye drop in New Zealand White rabbits; type: in vivo; details: rabbit; for IOP at 3 hours, Mean (SEM) / IOP at 4 hours, Mean (SEM): 0.3% single eye drop; for decrease in IOP compared to vehicle-treated group: at 3 and 4 hours
Experimental: Healthy female New Zealand White rabbits were tested in a randomized, blind, controlled study, with 6 animals per treatment group. They were acclimatized for 7 days prior to the start of the study. Intraocular pressure (IOP) was measured in both eyes pre-treatment and at intervals after instillation of a single eye drop of vehicle or test compound into the left eye of each animal, administered from a dropper bottle. The volume of each drop was approximately 60-65 microlitres. The vehicle was a sterile solution of 15% hydroxpropyl-β-cyclodextrin, 5% polyethylene glycol, 0.5% hydroxypropylmethylcellulose in deionised water, adjusted to pH 7 with HCl or NaOH as appropriate. […] IOP was measured using a Mentor Tonopen XL (Lim et al., 2005, Invest Opthalmol Vis Sci 46 2419-23), after topical administration of 0.5% proxymetacaine HCl local anaesthetic. Ten recordings per eye per time point were taken and a mean reading documented.

rat skin = details: given subcutaneously or topically to the skin; cited from earlier work
intraocular pressure = details: rabbit, cited from earlier work
[5] = biological target: GR receptors in the iris-ciliary body (Oryctolagus cuniculus, UniProt P59667); details: rabbit eye; cited from earlier work
Sequence of GR receptors in the iris-ciliary body (P59667 whole entry): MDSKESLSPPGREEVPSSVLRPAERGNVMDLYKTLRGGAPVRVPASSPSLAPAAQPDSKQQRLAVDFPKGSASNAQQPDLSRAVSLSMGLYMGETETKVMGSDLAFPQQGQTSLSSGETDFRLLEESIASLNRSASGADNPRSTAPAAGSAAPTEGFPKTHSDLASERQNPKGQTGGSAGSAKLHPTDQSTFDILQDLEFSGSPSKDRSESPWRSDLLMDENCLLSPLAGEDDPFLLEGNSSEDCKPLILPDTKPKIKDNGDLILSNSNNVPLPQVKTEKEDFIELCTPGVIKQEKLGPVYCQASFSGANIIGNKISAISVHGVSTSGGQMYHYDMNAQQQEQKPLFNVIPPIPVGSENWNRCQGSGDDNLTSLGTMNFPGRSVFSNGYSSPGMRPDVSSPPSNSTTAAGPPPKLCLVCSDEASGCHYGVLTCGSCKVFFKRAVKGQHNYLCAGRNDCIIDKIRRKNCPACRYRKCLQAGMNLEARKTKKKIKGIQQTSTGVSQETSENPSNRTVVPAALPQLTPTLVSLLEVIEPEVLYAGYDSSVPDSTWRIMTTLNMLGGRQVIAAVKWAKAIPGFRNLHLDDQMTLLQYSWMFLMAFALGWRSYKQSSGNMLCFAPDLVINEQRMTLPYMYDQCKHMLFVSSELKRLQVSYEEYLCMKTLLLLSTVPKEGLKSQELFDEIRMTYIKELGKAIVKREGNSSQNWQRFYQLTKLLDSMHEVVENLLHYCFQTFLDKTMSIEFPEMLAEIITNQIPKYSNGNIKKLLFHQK

[6] = read-out: GR Antagonist Mean Ki

SMILES	IC50 [1] [nM]	Ki [1] [nM]	Ki ([2]; GR Antagonist Mean Ki) [nM]	IC50 [3] [nM]	Ki [3] [nM]	IC50 [2] [nM]	Ki [2, 6] [nM]	IOP at 3 hours, Mean (SEM) [4]	IOP at 4 hours, Mean (SEM) [4]	decrease in IOP compared to vehicle-treated group [4]	effect on steroid-induced skin atrophy (rat skin)	effect on intraocular pressure, topical (intraocular pressure; 1% suspension eyedrops topically, after 4-13 weeks of treatment)	effect on intraocular pressure, subconjunctival injection (intraocular pressure; 1% suspension injected subconjunctivally)	binding to GR receptors in iris-ciliary body [5]
COc1cccc2c1-c1ccc(NS(C)(=O)=O)cc1C(c1cccc(C)c1)O2 (stereo not drawn) [Compound A-362947, N-[1-methoxy-6-(3-methylphenyl)-6H-benzo{c}chromen-8-yl]methanesulfonamide]	5.64	2.82	50.4	1330	531									
CC#C[C@]1(O)CC[C@H]2[C@@H]3CCC4=CC(=O)CCC4=C3[C@@H](c3ccc(N(C)C)cc3)C[C@@]21C [RU486, Mifepristone]								11.67 (1.23) mm Hg	11.83 (1.19) mm Hg	did not induce a statistically significant decrease in IOP	blocked atrophogenic effect of the topical steroid without affecting its anti-inflammatory effect	falls in intraocular pressure have been noted	falls in intraocular pressure were reported	specifically blocks the binding of the GR agonist triamcinolone
CN(C)c1ccc([C@H]2C[C@@]3(C)[C@@H](CC[C@]3(O)C#CCO)[C@@H]3CCC4=CC(=O)CCC4=C32)cc1 [RU42698]	1.74	0.87		10.6	4.24	80.9	12.6	11.83 (0.40) * mm Hg	11.83 (0.31) * mm Hg	induced a significant decrease				

Continued, in another order:

IC50 [1] [nM]	Ki [1] [nM]	Ki ([2]; GR Antagonist Mean Ki) [nM]	IC50 [3] [nM]	Ki [3] [nM]	IC50 [2] [nM]	Ki [2, 6] [nM]	SMILES	IOP at 3 hours, Mean (SEM) [4]	IOP at 4 hours, Mean (SEM) [4]	decrease in IOP compared to vehicle-treated group [4]	effect on steroid-induced skin atrophy (rat skin)	effect on intraocular pressure, topical (intraocular pressure; 1% suspension eyedrops topically, after 4-13 weeks of treatment)	effect on intraocular pressure, subconjunctival injection (intraocular pressure; 1% suspension injected subconjunctivally)	binding to GR receptors in iris-ciliary body [5]
1.12	0.56		4.46	1.79	17.3	2.55	CC#C[C@]1(O)CC[C@H]2[C@@H]3CCC4=CC(=O)CCC4=C3[C@@H](c3ccc(NC)cc3)C[C@@]21C [RU42633]							
1.36	0.68		15.9	6.37	58.3	8.6	CC#C[C@]1(O)CC[C@H]2[C@@H]3CCC4=CC(=O)CCC4=C3[C@@H](c3ccc(N)cc3)C[C@@]21C [RU42848]	11.67 (0.49) * mm Hg	11.50 (0.34) * mm Hg	induced a significant decrease in IOP				
